Data as given in article PMC3982195 (The FEBS journal, 2014).

Columns and labels:
[1] = molecular target: T1, cytosolic nucleotidase II (LpcN-II) (Legionella pneumophila, UniProt Q5ZZB6); format: biochemical
[2] = molecular target: T1, cytosolic nucleotidase II (LpcN-II); assay: biochemical; format: binding
[3] = molecular target: T1, cytosolic nucleotidase II (LpcN-II); format: biochemical; remark: listed apart in the source
[4] = molecular target: T1, cytosolic nucleotidase II (LpcN-II); format: biochemical; remark: listed apart in the source
[5] = test system: O=[N+]([O-])c1ccc(OP(=O)(O)O)cc1; assay: purified protein

T1 sequence (Q5ZZB6 1-459 limits assumed): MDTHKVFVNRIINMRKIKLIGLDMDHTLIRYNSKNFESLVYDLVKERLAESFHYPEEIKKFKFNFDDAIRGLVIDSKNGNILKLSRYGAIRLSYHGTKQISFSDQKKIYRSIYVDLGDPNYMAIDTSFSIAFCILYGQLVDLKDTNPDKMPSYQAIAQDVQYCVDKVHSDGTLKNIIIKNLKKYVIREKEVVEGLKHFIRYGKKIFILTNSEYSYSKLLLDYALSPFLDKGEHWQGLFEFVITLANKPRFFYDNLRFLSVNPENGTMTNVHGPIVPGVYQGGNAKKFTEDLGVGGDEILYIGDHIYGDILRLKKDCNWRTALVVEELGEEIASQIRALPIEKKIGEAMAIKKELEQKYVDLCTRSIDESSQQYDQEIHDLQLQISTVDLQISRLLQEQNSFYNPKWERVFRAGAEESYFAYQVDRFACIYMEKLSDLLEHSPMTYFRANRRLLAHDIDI

Nc1nc2c(ncn2[C@@H]2O[C@H](COP(=O)(O)OP(=O)(O)O)[C@@H](O)[C@H]2O)c(=O)[nH]1 [GDP]
activation of pNPP hydrolysis; competition with GTP [1]: GDP was also found to compete for binding to the GTP binding site

Nc1nc2c(ncn2[C@@H]2O[C@H](COP(=O)(O)OP(=O)(O)OP(=O)(O)O)[C@@H](O)[C@H]2O)c(=O)[nH]1 [GTP]
Kd [2]: 4.1 ± 0.7 mM

O=c1[nH]cnc2c1ncn2[C@@H]1O[C@H](COP(=O)(O)OP(=O)(O)OP(=O)(O)O)[C@@H](O)[C@H]1O [ITP]
competitive reduction of GTP activation of pNPP hydrolysis [3]: indicate that IMP and ITP bind to the GTP-binding site

Nc1nc2c(ncn2[C@H]2C[C@H](O)[C@@H](COP(=O)(O)OP(=O)(O)OP(=O)(O)O)O2)c(=O)[nH]1 [dGTP]
activation of pNPP hydrolysis by purified enzyme [4]: GTP, dGTP, and GDP showed activation of LpcN-II activity

cytosolic nucleotidase II (LpcN-II) (Legionella pneumophila subsp. pneumophila str. Philadelphia 1)
K0.5 [5]: 5.1 ± 0.9 mM | kcat/Km [5]: 0.1 M⁻¹ s⁻¹
